≈ marks a conversion by molar mass, not a printed value.

In general, MIC refers to the lowest concentration that inhibits growth of the organism. Low readings indicate greater potency, high ones weaker potency. The term IC50 denotes the midpoint of a concentration-inhibition curve.

Data set [1] deals with Escherichia coli. The data set is described as follows: Antimicrobial activity against Escherichia coli K-12. The data set is classed as functional.
Data set [2] deals with Salmonella enterica. Kind of data set: Antimicrobial activity against Salmonella enterica. Type of data set: functional.
Data set [3] has as its system Escherichia coli. The data set is described as follows: Antimicrobial activity against Escherichia coli. The data set is classed as functional.
In data set [4] the test system is Pseudomonas aeruginosa. Kind of data set: Antimicrobial activity against Pseudomonas aeruginosa. The data set is classed as functional, organism-based.
Data set [5] has as its system Staphylococcus aureus. Kind of data set: Antimicrobial activity against Staphylococcus aureus. The data set is classed as functional.
Data set [6] concerns Lipopolysaccharide (LPS). The data set is described as follows: Displacement of dansyl-PMB from LPS by fluorometric assay.
For data set [7], the system named is Escherichia coli. Kind of data set: Antimicrobial activity against Escherichia coli assessed as relative sensitizing activity. Type of data set: functional.
Data set [8] has as its target Lipopolysaccharide (LPS). The data set is described as follows: Displacement of dansyl-PMB from LPS by isothermal titration calorimetry. A general note: ITC needs no label: the signal is the heat of the interaction.
Data set [9] is described as follows: Toxicity in mouse. The data set is classed as organism-based. Conditions: in vivo.
The test system of data set [10] is Mus musculus. Kind of data set: Acute toxicity in iv dosed mouse. The data set is classed as organism-based. Particulars: in vivo.
Data set [11] relates to Pseudomonas aeruginosa.

Turning to `CCCCCCCCC(=O)N[C@H](C(=O)N[C@@H](CCN)C(=O)N[C@H]1CCNC(=O)[C@H]([C@@H](C)O)NC(=O)[C@H](CCN)NC(=O)[C@H](CCN)NC(=O)[C@H](CC(C)C)NC(=O)[C@@H](CC(C)C)NC(=O)[C@H](CCN)NC1=O)[C@@H](C)O`, the MIC in data set [1] is 12 µg/mL (≈ 11.2 µM).
Still for that read-out and setting: with `CCCCCCCCCCC(=O)N[C@H](C(=O)N[C@@H](CCN)C(=O)N[C@H]1CCNC(=O)[C@H]([C@@H](C)O)NC(=O)[C@H](CCN)NC(=O)[C@H](CCN)NC(=O)[C@H](CC(C)C)NC(=O)[C@@H](CC(C)C)NC(=O)[C@H](CCN)NC1=O)[C@@H](C)O` the figure was 3 µg/mL (≈ 2.73 µM); with `CCC(C)CCCCCC(=O)N[C@H](C(=O)N[C@@H](CCN)C(=O)N[C@H]1CCNC(=O)[C@H]([C@@H](C)O)NC(=O)[C@H](CCN)NC(=O)[C@H](CCN)NC(=O)[C@H](CC(C)C)NC(=O)[C@@H](CC(C)C)NC(=O)[C@H](CCN)NC1=O)[C@@H](C)O` (stereo partly specified), 50 µg/mL (≈ 46.2 µM).
As for `CCCCCCCCCCCC(=O)N[C@H](C(=O)N[C@@H](CCN)C(=O)N[C@H]1CCNC(=O)[C@H]([C@@H](C)O)NC(=O)[C@H](CCN)NC(=O)[C@H](CCN)NC(=O)[C@H](CC(C)C)NC(=O)[C@@H](CC(C)C)NC(=O)[C@H](CCN)NC1=O)[C@@H](C)O`, in data set [1], the MIC was 3 µg/mL (≈ 2.7 µM).
With `CCCCCCCCCC(=O)N[C@H](C(=O)N[C@@H](CCN)C(=O)N[C@H]1CCNC(=O)[C@H]([C@@H](C)O)NC(=O)[C@H](CCN)NC(=O)[C@H](CCN)NC(=O)[C@H](CC(C)C)NC(=O)[C@@H](CC(C)C)NC(=O)[C@H](CCN)NC1=O)[C@@H](C)O`, in data set [1], the minimal inhibitory concentration (MIC) is 3 µg/mL (≈ 2.77 µM).
Turning to `CCCCCCCCCCCCCC(=O)N[C@H](C(=O)N[C@@H](CCN)C(=O)N[C@H]1CCNC(=O)[C@H]([C@@H](C)O)NC(=O)[C@H](CCN)NC(=O)[C@H](CCN)NC(=O)[C@H](CC(C)C)NC(=O)[C@@H](CC(C)C)NC(=O)[C@H](CCN)NC1=O)[C@@H](C)O`, the MIC in data set [2] amounted to 2 µM (≈ 2.28 µg/mL); in [3], 4 µM; in data set [1] it was 12 µg/mL (≈ 10.5 µM); in data set [4], 4 µM.
Consider `CCC(C)CCCCCCC(=O)N[C@H](C(=O)N[C@@H](CCN)C(=O)N[C@H]1CCNC(=O)[C@H]([C@@H](C)O)NC(=O)[C@H](CCN)NC(=O)[C@H](CCN)NC(=O)[C@H](CC(C)C)NC(=O)[C@@H](CC(C)C)NC(=O)[C@H](CCN)NC1=O)[C@@H](C)O` (stereo partly specified), for which 25 µg/mL (≈ 22.8 µM) was the least that counted as inhibitory in [1] (MIC).
Turning to `CCCCCCCCC(=O)N[C@H](C(=O)N[C@@H](CCN)C(=O)N[C@H]1CCNC(=O)[C@H]([C@@H](C)O)NC(=O)[C@H](CCN)NC(=O)[C@H](CCN)NC(=O)[C@H](CC(C)C)NC(=O)[C@@H](Cc2ccccc2)NC(=O)[C@H](CCN)NC1=O)[C@@H](C)O`, the figures for the MIC in [3], in data set [5] and in [4] were 0.5 µg/mL, at least 16 µg/mL and 2 µg/mL, respectively.
On to `CCNCC[C@H](NC(=O)CCCCC(C)CC)C(=O)N[C@H](C(=O)N[C@@H](CCN)C(=O)N[C@H]1CCNC(=O)[C@H]([C@@H](C)O)NC(=O)[C@H](CCN)NC(=O)[C@H](CCN)NC(=O)[C@H](CC(C)C)NC(=O)[C@@H](Cc2ccccc2)NC(=O)[C@H](CCN)NC1=O)[C@@H](C)O` (stereo partly specified), for which, in data set [6], the dansyl-PMB displacement concentration turned out to be 2.3 µg/mL. Further, the MIC was found to be 0.112 µg/mL in data set [3] and 0.146 µg/mL in data set [4].
The like results for `CCC(C)CCCCC(=O)N[C@@H](CCNC(=O)C(N)CCCCNC(=O)OCc1ccccc1)C(=O)N[C@H](C(=O)N[C@@H](CCN)C(=O)N[C@H]1CCNC(=O)[C@H]([C@@H](C)O)NC(=O)[C@H](CCN)NC(=O)[C@H](CCN)NC(=O)[C@H](CC(C)C)NC(=O)[C@@H](Cc2ccccc2)NC(=O)[C@H](CCN)NC1=O)[C@@H](C)O` (stereo partly specified) were, in that order, 1.12 µg/mL, 0.206 µg/mL and 0.175 µg/mL.
The like results for `CCCNCC[C@H](NC(=O)CCCCC(C)CC)C(=O)N[C@H](C(=O)N[C@@H](CCN)C(=O)N[C@H]1CCNC(=O)[C@H]([C@@H](C)O)NC(=O)[C@H](CCN)NC(=O)[C@H](CCN)NC(=O)[C@H](CC(C)C)NC(=O)[C@@H](Cc2ccccc2)NC(=O)[C@H](CCN)NC1=O)[C@@H](C)O` (stereo partly specified) were, in that order, 2.4 µg/mL, 0.208 µg/mL and 0.206 µg/mL.
The like results for `CCC(C)CCCCC(=O)N[C@@H](CCNC(=O)C(N)CCCNC(=N)N)C(=O)N[C@H](C(=O)N[C@@H](CCN)C(=O)N[C@H]1CCNC(=O)[C@H]([C@@H](C)O)NC(=O)[C@H](CCN)NC(=O)[C@H](CCN)NC(=O)[C@H](CC(C)C)NC(=O)[C@@H](Cc2ccccc2)NC(=O)[C@H](CCN)NC1=O)[C@@H](C)O` (stereo partly specified) were, in that order, 4.48 µg/mL, 0.453 µg/mL and 0.207 µg/mL.
For the molecule `CCC(C)CCCCC(=O)N[C@@H](CCNC(C)=O)C(=O)N[C@H](C(=O)N[C@@H](CCN)C(=O)N[C@H]1CCNC(=O)[C@H]([C@@H](C)O)NC(=O)[C@H](CCN)NC(=O)[C@H](CCN)NC(=O)[C@H](CC(C)C)NC(=O)[C@@H](Cc2ccccc2)NC(=O)[C@H](CCN)NC1=O)[C@@H](C)O` (stereo partly specified), the dansyl-PMB displacement concentration in data set [6] is 2.8 µg/mL. Also, the MIC was 1.3 µg/mL in data set [3] and 2.8 µg/mL in data set [4].
`CCNCC[C@@H]1NC(=O)[C@H](CCN)NC(=O)[C@H](CC(C)C)NC(=O)[C@@H](Cc2ccccc2)NC(=O)[C@H](CCN)NC(=O)[C@@H](NC(=O)[C@H](CCN)NC(=O)[C@@H](NC(=O)[C@H](CCN)NC(=O)CCCCC(C)CC)[C@@H](C)O)CCNC(=O)[C@H]([C@@H](C)O)NC1=O` (stereo partly specified) came in with a dansyl-PMB displacement concentration in data set [6] of 9.5 µg/mL. Besides, the MIC in [3] was determined as 0.492 µg/mL; in data set [4] it was 0.413 µg/mL.
The like results for `CCC(C)CCCCC(=O)N[C@@H](CCNC(=O)CN)C(=O)N[C@H](C(=O)N[C@@H](CCN)C(=O)N[C@H]1CCNC(=O)[C@H]([C@@H](C)O)NC(=O)[C@H](CCN)NC(=O)[C@H](CCN)NC(=O)[C@H](CC(C)C)NC(=O)[C@@H](Cc2ccccc2)NC(=O)[C@H](CCN)NC1=O)[C@@H](C)O` (stereo partly specified) were, in that order, 8 µg/mL, 0.028 µg/mL and 0.033 µg/mL.
The like results for `CCCNCC[C@@H]1NC(=O)[C@H](CCN)NC(=O)[C@H](CC(C)C)NC(=O)[C@@H](Cc2ccccc2)NC(=O)[C@H](CCN)NC(=O)[C@@H](NC(=O)[C@H](CCN)NC(=O)[C@@H](NC(=O)[C@H](CCN)NC(=O)CCCCC(C)CC)[C@@H](C)O)CCNC(=O)[C@H]([C@@H](C)O)NC1=O` (stereo partly specified) were, in that order, 9.5 µg/mL, 0.995 µg/mL and 0.763 µg/mL.
Take `CCCCCCCC(=O)N[C@H](C(=O)N[C@@H](CCN)C(=O)N[C@H]1CCNC(=O)[C@H]([C@@H](C)O)NC(=O)[C@H](CCN)NC(=O)[C@H](CCN)NC(=O)[C@H](CC(C)C)NC(=O)[C@@H](Cc2ccccc2)NC(=O)[C@H](CCN)NC1=O)[C@@H](C)O` (stereo in doubt; 80) [Octanoyl Polymixin B nonapeptide]: the values for the MIC in data set [3], in [5] and in data set [4] were 0.03 µg/mL, at least 16 µg/mL and 4 µg/mL, respectively.
As for `CC(C)C[C@@H]1NC(=O)[C@@H](Cc2ccccc2)NC(=O)[C@H](CCN)NC(=O)[C@@H](NC(=O)[C@H](CCN)NC(=O)[C@@H](N)[C@@H](C)O)CCNC(=O)[C@H]([C@@H](C)O)NC(=O)[C@H](CCN)NC(=O)[C@H](CCN)NC1=O` (stereo in doubt; 193) [POLYMYXIN B NONAPEPTIDE], the Activity in [7] turned out to be 100%. The IC50 in [8] (read-out: IC50) amounted to 2.5 µM. Also, in data set [9], the LD50 is 43 mg/kg.
For the molecule `CC(C)C[C@@H]1NC(=O)[C@@H](Cc2ccccc2)NC(=O)[C@H](CCN)NC(=O)[C@@H](NC(=O)[C@H](CCN)NC(=O)[C@@H](N)[C@@H](C)O)CCNC(=O)[C@H]([C@@H](C)O)NC(=O)[C@H](CCN)NC(=O)[C@H](CCN)NC1=O` (stereo in doubt; 202) [POLYMYXIN B NONAPEPTIDE], the Activity in data set [7] is listed as 5%. Besides, in data set [8] (read-out: IC50), the IC50 came to 8 µM.
With `CCCCCCCCCC(=O)N[C@H](C(=O)N[C@@H](CCN)C(=O)N[C@H]1CCNC(=O)[C@H]([C@@H](C)O)NC(=O)[C@H](CCN)NC(=O)[C@H](CCN)NC(=O)[C@H](CC(C)C)NC(=O)[C@@H](Cc2ccccc2)NC(=O)[C@H](CCN)NC1=O)[C@@H](C)O` [DECANOYL POLYMIXIN B NONAPEPTIDE], the results for the MIC in [3], in [5] and in data set [4] were 1 µg/mL, at least 16 µg/mL and 2 µg/mL, respectively.
As to `CC(C)C[C@@H]1NC(=O)[C@@H](Cc2ccccc2)NC(=O)[C@H](CCN)NC(=O)[C@@H](NC(=O)[C@H](CCN)NC(=O)[C@@H](NC(=O)[C@H](CN)NC(=O)O)[C@@H](C)O)CCNC(=O)[C@H]([C@@H](C)O)NC(=O)[C@H](CCN)NC(=O)[C@H](CCN)NC1=O` [DESFA-[DIAMINOPROPANOIC ACID1]POLYMYXIN B], the values for the MIC in data set [2], in data set [3] and in data set [4] were 16 µM (≈ 17.5 µg/mL), 8 µM and 1 µM, respectively. Also, in [10], the LD50 was 23.5 µM/g. This molecule showed an IC50 in data set [8] of 14 µM.
As for `CC(C)C[C@@H]1NC(=O)[C@@H](Cc2ccccc2)NC(=O)[C@H](CCN)NC(=O)[C@@H](NC(=O)[C@H](CCN)NC(=O)[C@@H](NC(=O)[C@H](Cc2c[nH]c3ccccc23)NC(=O)O)[C@@H](C)O)CCNC(=O)[C@H]([C@@H](C)O)NC(=O)[C@H](CCN)NC(=O)[C@H](CCN)NC1=O` [DESFA-[TRP1]POLYMYXIN B], the MIC came out at 8 µM (≈ 9.55 µg/mL) in data set [2], 8 µM in data set [3] and 8 µM in data set [4]. The molecule further showed an LD50 in data set [10] of 19 µM/g. This molecule also gave an IC50 in data set [8] of 20 µM.
In the case of POLYMYXIN B, the MIC in data set [2], in [11] and in data set [3] was 1 µM throughout.

For the origin of these results see ChEMBL document CHEMBL1156251, “Structure--activity relationships of polymyxin antibiotics” (J Med Chem, 2010).
